Measured values published in BindingDB's records for doi:10.1074/jbc.M004512200 (Schering-Plough Research Institute, 2000).
“And” between values parts separate entries of the source, which are not always exact repeats. Equal values may be shown once.

Columns and labels:
[1] = target: T1, Leukotriene B4 receptor 2 (Homo sapiens, UniProt Q9NPC1)
T1 sequence (Q9NPC1 whole entry): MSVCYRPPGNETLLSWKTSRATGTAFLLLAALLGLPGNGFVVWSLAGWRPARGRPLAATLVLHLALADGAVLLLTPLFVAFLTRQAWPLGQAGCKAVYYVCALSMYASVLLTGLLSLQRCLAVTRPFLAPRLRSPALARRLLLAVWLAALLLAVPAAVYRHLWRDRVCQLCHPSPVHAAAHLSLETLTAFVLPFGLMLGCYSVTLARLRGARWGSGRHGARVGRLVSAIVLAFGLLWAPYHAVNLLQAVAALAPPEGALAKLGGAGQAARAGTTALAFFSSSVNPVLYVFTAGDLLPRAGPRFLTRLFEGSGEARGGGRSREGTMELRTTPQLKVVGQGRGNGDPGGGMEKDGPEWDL

[2] = target: Leukotriene B4 receptor 1 (Homo sapiens, UniProt Q15722)
Sequence of Leukotriene B4 receptor 1 (Q15722 whole entry): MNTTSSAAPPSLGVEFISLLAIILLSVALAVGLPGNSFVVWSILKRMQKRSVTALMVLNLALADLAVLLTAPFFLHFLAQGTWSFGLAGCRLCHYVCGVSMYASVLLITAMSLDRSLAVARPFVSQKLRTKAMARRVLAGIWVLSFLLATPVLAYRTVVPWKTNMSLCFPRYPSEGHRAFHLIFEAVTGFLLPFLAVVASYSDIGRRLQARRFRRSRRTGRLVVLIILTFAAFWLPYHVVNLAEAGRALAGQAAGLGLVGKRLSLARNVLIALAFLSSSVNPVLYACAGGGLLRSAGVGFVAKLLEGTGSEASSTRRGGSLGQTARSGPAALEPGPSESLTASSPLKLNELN

Compound	Ki [1]	Ki [2]
CC/C=C/C=C/CCC=CC=CC=CC(SCC(NC(=O)CCC(N)C(=O)O)C(=O)NCC(=O)O)C(O)CCCC(=O)O (centres undefined) [LTC5]	3 µM	> 10 µM
CC/C=C/CC=CCC=CC=CC=CC1OC1CCCC(=O)OC (centres undefined) [LTA5-ME]	–	> 10 µM
CCCCC/C=C\C/C=C\C/C=C\C=C\C(O)CCCC(=O)O [HETE-5(S)]	1 µM and 3 µM	1 µM and > 10 µM
CCCCCCCCC=CC=CC=CC(SCC(N)C(=O)O)C(O)CCCC(=O)O (centres undefined) [LTE3]	4 µM	> 10 µM
CCCCCCC=CC(=O)C=CC=CCC=CCCCC(=O)O [NSC_5283162]	0.155 µM	> 1 µM
CCCCC[C@@H](O)/C=C/C=C\C/C=C\C/C=C\CCCC(=O)O	0.173 µM	> 18 µM
CCCCCC=CCC=CC=CC=CC1OC1CCCC(=O)OC (centres undefined) [NSC_126534]	> 10 µM	> 10 µM
CCCCCC=CCC=CC=CC=CC(SCC(NC(=O)CCC(N)C(=O)O)C(=O)NCC(=O)O)C(O)CCCC(=O)O (centres undefined) [CAS_5283121]	> 9 µM	> 1.9 µM
CCCCCC=CCC=CC=CC(O)CC=CCCCC(=O)O (centres undefined) [NSC_5283163]	> 1 µM	> 30 µM
CC(C)(O)c1ccccc1CCC(S)c1cccc(C=Cc2ccc3ccc(Cl)cc3n2)c1 (centres undefined) [NSC_5311297]	> 10 µM	> 10 µM
CCCCCC=CCC=CCC=CCC#CCCCC(=O)O [NSC_1777]	1 µM	–
CCCCCCCCC=CC=CC=CC(SCC(N)C(=O)NCC(=O)O)C(O)CCCC(=O)O (centres undefined) [LTD3]	1 µM	> 10 µM
CCCCCC=CCC=CC=CC=CC(SCC(NC(=O)CCC(N)C(=O)O)C(=O)O)C(O)CCCC(=O)O (centres undefined) [NSC_5283124]	6 µM	5.7 µM
CCCCC/C=C\C/C=C\CC=CC=CC(=O)CCCC(=O)O [ETE-5-Oxo]	> 1 µM	> 1 µM
CC/C=C/CC=CCC=CC=CC=CC(SCC(N)C(=O)NCC(=O)O)C(O)CCCC(=O)O (centres undefined) [LTD5]	–	> 10 µM
O=C(O)CCCC=CCC=CCC=CCC=CCCCCCO [CAS_5283157]	> 1 µM	> 10 µM
COc1cc(C(=O)NS(=O)(=O)c2ccccc2C)ccc1Cc1cn(C)c2ccc(NC(=O)OC3CCCC3)cc12 [cyclopentyl 3-(2-methoxy-4-((o-tolylsulfonyl)carbamoyl)benzyl)-1-methylindole-5-carbamate]	> 10 µM	7.12 µM
CCCCCCCCC=CC=CC=CC(SCC(NC(=O)CCC(N)C(=O)O)C(=O)NCC(=O)O)C(O)CCCC(=O)O (centres undefined) [LTC3]	> 4 µM	> 14 µM

Continued by falling Ki [2], values first:

Ki [1]	Ki [2]	Compound
> 10 µM	5 µM	CCCCCCCCC=CC=CC=CC1OC1CCCC(=O)OC (centres undefined) [LTA3-ME]
> 10 µM	4 µM	CCCCC/C=C\C\C=C/C=C/C=C/[C@@H](SC[C@H](N)C(=O)NCC(=O)O)[C@@H](O)CCCC(=O)O [5S-hydroxy-6R-(S-cysteinylglycinyl)-7E,9E,11E,14Z-eicosatetraenoic acid]
6 µM	2.37 µM	CCCCC/C=C\C\C=C/C=C/C=C/[C@@H](SC[C@H](N)C(=O)O)[C@@H](O)CCCC(=O)O [(5S-(5R*,6S*(S*),7E,9E,11Z,14Z))-6-((2-Amino-2-carboxyethyl)thio)-5-hydroxy-7,9,11,14-eicosatetraenoic acid]
1.4 µM	1.44 µM	CCCCCC(O)C=CC=CC=CC=CC(O)C(O)CCCC(=O)O (centres undefined) [NSC_5280914]
5.43 µM	0.025 µM	CCCCC/C=C\C[C@H](O)/C=C/c1cccc(C[C@H](O)CCCCO)n1 [(5R)-6-[6-[(1E,3S,5Z)-3-hydroxyundeca-1,5-dienyl]pyridin-2-yl]hexane-1,5-diol]
1.23 µM	0.0051 µM	CCCCC/C=C\C[C@@H](O)/C=C/C=C/C=C\[C@@H](O)CCCC(=O)NCCCN [LTB4-3-aminopropylamide]
0.0094 µM	0.0037 µM	CCC=CCC=CCC(O)C=CC=CC=CC(O)CCCC(=O)O (centres undefined) [NSC_5283125]
0.041 µM	0.00054 µM	O=C(O)CCC[C@H](O)\C=C/C=C/C=C/[C@H](O)C/C=C\CCCCCO [LTB4-20-hydroxy]
